# Results: publication PMC12514573, “The bacterial tRNA-modifying enzyme tRNA^Ile lysidine synthetase is genetically conserved but catalytically variable” (The Journal of Biological Chemistry, 2025)
# Experiments:
# Format in all cases: biochemical
# BfTilS = target: T1, BfTilS (Bacteroides fragilis, UniProt Q5LFM6); test: 3H-lysine incorporation into tRNA, filter scintillation; conditions: labelled compound; cognate tRNA(Ile2) transcript, 2 mM ATP, 10 mM MgCl2, 10 mM KCl, pH 8.5
# T1 construct: gene tilS; recombinant, pET-28a, Rosetta II E. coli; strain source only in supplement (codon-usage genome NCTC9343)
# T1 sequence (Q5LFM6 1-435): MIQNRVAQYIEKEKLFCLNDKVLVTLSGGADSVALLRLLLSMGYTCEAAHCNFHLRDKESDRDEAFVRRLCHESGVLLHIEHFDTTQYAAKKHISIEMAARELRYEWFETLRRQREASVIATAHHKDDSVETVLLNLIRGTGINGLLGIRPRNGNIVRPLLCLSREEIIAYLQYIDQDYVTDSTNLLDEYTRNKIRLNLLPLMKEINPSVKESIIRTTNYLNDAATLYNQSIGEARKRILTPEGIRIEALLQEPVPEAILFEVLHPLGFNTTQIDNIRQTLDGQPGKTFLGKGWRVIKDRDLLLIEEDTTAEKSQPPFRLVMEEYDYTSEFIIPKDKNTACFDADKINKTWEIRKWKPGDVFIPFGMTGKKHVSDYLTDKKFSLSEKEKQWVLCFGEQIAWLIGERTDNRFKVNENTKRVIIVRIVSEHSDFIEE
# EcTilS = target: T2, EcTilS (Escherichia coli, UniProt P52097); test: as above; conditions: labelled compound; cognate tRNA(Ile2) transcript, 2 mM ATP, 10 mM MgCl2, 10 mM KCl, pH 9.0
# T2 construct: gene tilS; recombinant, pET-28a, Rosetta II E. coli; strain source only in supplement (codon-usage genome W3110)
# T2 sequence (P52097 1-432): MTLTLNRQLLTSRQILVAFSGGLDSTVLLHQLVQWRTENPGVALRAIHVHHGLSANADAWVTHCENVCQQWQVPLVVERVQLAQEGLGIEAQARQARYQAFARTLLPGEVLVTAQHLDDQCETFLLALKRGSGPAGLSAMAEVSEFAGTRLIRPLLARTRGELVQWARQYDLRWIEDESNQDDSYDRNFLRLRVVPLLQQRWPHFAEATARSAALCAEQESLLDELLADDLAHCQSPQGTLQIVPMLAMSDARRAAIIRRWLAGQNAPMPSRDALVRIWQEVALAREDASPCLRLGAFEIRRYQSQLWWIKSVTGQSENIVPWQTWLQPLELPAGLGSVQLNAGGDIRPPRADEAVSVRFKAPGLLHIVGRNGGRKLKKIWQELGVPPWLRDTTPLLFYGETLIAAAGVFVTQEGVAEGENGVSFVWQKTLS
# HpTilS = target: T3, HpTilS (Helicobacter pylori, UniProt O25428); test: as above; conditions: labelled compound; cognate tRNA(Ile2) transcript, 2 mM ATP, 10 mM MgCl2, 10 mM KCl, pH 8.5
# T3 construct: gene tilS; type II TilS; recombinant, Rosetta II E. coli; strain source only in supplement (codon-usage genome 26695)
# T3 sequence (O25428 1-336): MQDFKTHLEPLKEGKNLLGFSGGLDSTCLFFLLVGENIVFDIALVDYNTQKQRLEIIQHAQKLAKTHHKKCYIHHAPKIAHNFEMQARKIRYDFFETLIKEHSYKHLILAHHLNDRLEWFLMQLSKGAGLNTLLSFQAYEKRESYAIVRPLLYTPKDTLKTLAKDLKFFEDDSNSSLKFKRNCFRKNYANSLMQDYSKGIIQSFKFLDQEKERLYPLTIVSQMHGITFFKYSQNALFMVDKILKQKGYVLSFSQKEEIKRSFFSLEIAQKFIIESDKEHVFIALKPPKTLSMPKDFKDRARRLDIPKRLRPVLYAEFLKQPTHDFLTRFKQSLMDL
# MsTilS = target: T4, MsTilS (Mycolicibacterium smegmatis, UniProt A0R594); test: as above; conditions: labelled compound; cognate tRNA(Ile2) transcript, 2 mM ATP, 10 mM MgCl2, 10 mM KCl, pH 8.5
# T4 construct: gene tilS; type II TilS, lacks CTD2 naturally; recombinant, Rosetta II E. coli; strain source only in supplement (codon-usage genome MG(2)155)
# T4 sequence (A0R594 1-322): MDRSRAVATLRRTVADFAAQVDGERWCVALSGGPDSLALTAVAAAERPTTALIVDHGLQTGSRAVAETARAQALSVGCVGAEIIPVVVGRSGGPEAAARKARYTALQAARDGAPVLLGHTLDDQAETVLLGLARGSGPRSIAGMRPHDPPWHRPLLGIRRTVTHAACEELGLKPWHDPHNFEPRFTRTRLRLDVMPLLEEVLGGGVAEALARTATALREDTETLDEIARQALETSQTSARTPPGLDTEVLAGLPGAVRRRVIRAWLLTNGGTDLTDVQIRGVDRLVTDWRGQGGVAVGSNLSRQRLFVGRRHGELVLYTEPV
# PaTilS = target: T5, PaTilS (Pseudomonas aeruginosa, UniProt Q9HXZ3); test: as above; conditions: labelled compound; cognate tRNA(Ile2) transcript, 2 mM ATP, 10 mM MgCl2, 10 mM KCl, pH 9.0
# T5 construct: gene tilS; recombinant, pET-28a, Rosetta II E. coli; strain source only in supplement (codon-usage genome PAO1)
# T5 sequence (Q9HXZ3 1-442): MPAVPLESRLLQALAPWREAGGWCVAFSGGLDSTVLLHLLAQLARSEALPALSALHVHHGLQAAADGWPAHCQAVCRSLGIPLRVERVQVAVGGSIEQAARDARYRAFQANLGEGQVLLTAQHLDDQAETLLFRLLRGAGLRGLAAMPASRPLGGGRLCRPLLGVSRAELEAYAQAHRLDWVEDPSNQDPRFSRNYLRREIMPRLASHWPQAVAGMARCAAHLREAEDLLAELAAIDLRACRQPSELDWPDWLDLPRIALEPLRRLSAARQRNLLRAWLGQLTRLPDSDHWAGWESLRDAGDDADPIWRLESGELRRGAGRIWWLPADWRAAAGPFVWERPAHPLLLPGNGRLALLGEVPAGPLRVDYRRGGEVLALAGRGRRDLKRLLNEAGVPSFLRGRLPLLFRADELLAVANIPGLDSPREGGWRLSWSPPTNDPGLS
# GkTilS = target: T6, GkTilS (Geobacillus kaustophilus, UniProt Q5L3T3); test: as above; conditions: labelled compound; cognate tRNA(Ile2) transcript, 2 mM ATP, 10 mM MgCl2, 10 mM KCl, pH 9.0
# T6 construct: gene tilS; recombinant, pET-28a, Rosetta II E. coli; strain source only in supplement (codon-usage genome HTA426)
# T6 sequence (Q5L3T3 1-464): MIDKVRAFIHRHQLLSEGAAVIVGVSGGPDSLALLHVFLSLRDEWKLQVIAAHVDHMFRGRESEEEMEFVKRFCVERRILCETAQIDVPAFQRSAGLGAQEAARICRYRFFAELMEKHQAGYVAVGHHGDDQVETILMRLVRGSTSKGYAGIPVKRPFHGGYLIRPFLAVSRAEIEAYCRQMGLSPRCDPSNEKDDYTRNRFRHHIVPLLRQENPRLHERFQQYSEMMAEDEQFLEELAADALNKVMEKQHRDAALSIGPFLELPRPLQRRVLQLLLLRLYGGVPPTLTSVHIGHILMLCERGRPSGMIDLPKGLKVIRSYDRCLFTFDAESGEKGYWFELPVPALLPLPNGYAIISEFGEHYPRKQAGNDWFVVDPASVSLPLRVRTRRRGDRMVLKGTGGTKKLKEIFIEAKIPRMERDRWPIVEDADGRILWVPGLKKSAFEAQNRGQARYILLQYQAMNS
# BcTilS = target: T7, BcTilS (Burkholderia cenocepacia, UniProt B4ED70); test: as above; conditions: labelled compound; cognate tRNA(Ile2) transcript, 2 mM ATP, 10 mM MgCl2, 10 mM KCl, pH 9.0
# T7 construct: gene tilS; recombinant, pET-28a, Rosetta II E. coli; strain source only in supplement (codon-usage genome HI2424)
# T7 sequence (B4ED70 1-473): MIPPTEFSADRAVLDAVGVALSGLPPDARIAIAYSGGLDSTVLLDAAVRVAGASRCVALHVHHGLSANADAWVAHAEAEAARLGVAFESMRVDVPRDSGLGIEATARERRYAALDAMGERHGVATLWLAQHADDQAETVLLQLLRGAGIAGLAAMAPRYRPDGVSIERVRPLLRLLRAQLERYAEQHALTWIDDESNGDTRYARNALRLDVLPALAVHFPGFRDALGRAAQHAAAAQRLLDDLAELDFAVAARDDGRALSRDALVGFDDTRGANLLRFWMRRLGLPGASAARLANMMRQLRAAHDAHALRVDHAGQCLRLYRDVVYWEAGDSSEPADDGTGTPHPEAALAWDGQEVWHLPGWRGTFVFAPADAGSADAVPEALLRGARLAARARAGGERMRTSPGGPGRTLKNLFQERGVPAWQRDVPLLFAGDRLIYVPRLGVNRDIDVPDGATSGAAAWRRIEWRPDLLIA
# GkMetRS = target: T8, GkMetRS (Geobacillus kaustophilus, UniProt Q5L3W2); test: tRNA methionylation (aminoacylation); conditions: cognate tRNA(Met) transcript; assay details not given
# T8 construct: gene metG; recombinant, cloned metS gene; details not in main text
# BcMetRS = target: T9, BcMetRS (Burkholderia cenocepacia, UniProt A0K9L0); test: tRNA methionylation (aminoacylation); conditions: cognate tRNA(Met) transcript; assay details not given
# T9 construct: gene metG; recombinant, cloned metS gene; details not in main text
# T9 sequence (A0K9L0 1-718): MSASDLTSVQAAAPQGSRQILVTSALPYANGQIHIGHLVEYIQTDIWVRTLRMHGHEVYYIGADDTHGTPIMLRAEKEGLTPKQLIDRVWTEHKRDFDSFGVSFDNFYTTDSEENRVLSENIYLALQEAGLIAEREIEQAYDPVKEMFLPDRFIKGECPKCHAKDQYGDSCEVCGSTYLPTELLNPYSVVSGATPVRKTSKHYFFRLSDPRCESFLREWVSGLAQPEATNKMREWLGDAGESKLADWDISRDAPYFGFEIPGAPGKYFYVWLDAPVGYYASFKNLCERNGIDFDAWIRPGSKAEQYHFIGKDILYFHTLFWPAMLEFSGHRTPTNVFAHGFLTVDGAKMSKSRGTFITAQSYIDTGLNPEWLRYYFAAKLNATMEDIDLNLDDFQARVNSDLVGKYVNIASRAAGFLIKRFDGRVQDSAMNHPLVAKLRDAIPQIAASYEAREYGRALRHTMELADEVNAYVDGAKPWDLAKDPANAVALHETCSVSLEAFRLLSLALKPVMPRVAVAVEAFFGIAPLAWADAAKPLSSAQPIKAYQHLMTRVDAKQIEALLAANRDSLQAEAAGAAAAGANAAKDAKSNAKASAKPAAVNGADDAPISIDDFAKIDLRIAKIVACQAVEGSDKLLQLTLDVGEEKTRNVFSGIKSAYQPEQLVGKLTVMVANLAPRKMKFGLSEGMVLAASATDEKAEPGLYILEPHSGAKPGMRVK
# PaMetRS = target: T10, PaMetRS (Pseudomonas aeruginosa, UniProt Q9HYC7); test: tRNA methionylation (aminoacylation); conditions: cognate tRNA(Met) transcript; assay details not given
# T10 construct: gene metG; recombinant, cloned metS gene; details not in main text
# T10 sequence (Q9HYC7 1-677): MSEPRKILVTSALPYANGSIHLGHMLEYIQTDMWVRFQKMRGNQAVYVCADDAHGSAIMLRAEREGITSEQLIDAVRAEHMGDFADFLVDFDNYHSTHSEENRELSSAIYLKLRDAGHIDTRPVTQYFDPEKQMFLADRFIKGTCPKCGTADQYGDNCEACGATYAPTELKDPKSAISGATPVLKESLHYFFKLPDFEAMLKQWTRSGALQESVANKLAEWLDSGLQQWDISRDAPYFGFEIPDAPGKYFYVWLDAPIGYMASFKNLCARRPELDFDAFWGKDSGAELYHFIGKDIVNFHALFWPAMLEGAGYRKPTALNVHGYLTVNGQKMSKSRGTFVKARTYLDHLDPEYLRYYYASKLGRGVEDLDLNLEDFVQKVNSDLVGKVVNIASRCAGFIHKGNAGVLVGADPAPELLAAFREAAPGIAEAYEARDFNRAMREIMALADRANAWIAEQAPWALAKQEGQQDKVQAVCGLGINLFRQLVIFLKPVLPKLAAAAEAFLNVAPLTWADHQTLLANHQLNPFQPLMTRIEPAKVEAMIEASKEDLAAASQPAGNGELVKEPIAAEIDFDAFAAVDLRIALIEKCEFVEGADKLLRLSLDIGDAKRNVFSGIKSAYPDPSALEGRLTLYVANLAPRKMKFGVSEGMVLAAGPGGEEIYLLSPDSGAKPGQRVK
# T8 sequence (Q5L3W2 1-650): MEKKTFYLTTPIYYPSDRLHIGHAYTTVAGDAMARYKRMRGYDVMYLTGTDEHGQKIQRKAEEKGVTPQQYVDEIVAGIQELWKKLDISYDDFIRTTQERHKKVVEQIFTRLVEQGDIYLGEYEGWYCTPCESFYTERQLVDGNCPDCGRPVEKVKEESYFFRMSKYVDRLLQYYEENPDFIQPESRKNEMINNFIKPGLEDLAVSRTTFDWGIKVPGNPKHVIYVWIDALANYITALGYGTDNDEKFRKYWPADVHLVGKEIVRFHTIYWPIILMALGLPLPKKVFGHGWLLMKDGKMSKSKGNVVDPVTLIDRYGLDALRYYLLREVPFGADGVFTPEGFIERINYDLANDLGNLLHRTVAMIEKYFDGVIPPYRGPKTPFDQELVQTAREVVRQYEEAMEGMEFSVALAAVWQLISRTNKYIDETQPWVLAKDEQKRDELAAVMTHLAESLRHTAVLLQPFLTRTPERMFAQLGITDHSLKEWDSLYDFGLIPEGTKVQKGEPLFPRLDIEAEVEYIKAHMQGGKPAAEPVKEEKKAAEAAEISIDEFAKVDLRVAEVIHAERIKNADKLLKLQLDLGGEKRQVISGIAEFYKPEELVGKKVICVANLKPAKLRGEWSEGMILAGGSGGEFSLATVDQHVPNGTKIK
smiles,measurement,setting,value
NCCCC[C@H](N)C(=O)O [L-lysine],"3H-lysine incorporation into tRNA, filter scintillation",BfTilS,Filters were counted by liquid scintillation to quantify lysine incorporation into transcript tRNA.
same,"3H-lysine incorporation into tRNA, filter scintillation",EcTilS,Filters were counted by liquid scintillation to quantify lysine incorporation into transcript tRNA.
same,"3H-lysine incorporation into tRNA, filter scintillation",HpTilS,Filters were counted by liquid scintillation to quantify lysine incorporation into transcript tRNA.
same,"3H-lysine incorporation into tRNA, filter scintillation",MsTilS,Filters were counted by liquid scintillation to quantify lysine incorporation into transcript tRNA.
same,"3H-lysine incorporation into tRNA, filter scintillation",PaTilS,Filters were counted by liquid scintillation to quantify lysine incorporation into transcript tRNA.
same,"3H-lysine incorporation into tRNA, filter scintillation",GkTilS,Filters were counted by liquid scintillation to quantify lysine incorporation into transcript tRNA.
same,"3H-lysine incorporation into tRNA, filter scintillation",BcTilS,Filters were counted by liquid scintillation to quantify lysine incorporation into transcript tRNA.
CSCC[C@H](N)C(=O)O [methionine],tRNA methionylation (aminoacylation),GkMetRS,evaluated the methionylation activity toward cognate tRNA^Met and near-cognate tRNA^Ile2 substrates
same,tRNA methionylation (aminoacylation),BcMetRS,evaluated the methionylation activity toward cognate tRNA^Met and near-cognate tRNA^Ile2 substrates
same,tRNA methionylation (aminoacylation),PaMetRS,evaluated the methionylation activity toward cognate tRNA^Met and near-cognate tRNA^Ile2 substrates
